Source: publication PMC3815952 (Microbial biotechnology, 2009)

Key:
RPA1163 = RPA1163 (Rhodopseudomonas palustris, UniProt Q6NAM1); assay: calorimetry, non-linear regression; assay type: biochemical; settings: Tris-SO4 pH 8.5, 30°C
Bcen2424–2051 = settings: read-out: Substrates / Chloroacetate / KM; Tris-SO4 pH 8.5, 30°C
RHA1_ro00230 = RHA1_ro00230 (Rhodococcus jostii, UniProt Q0SK70); assay: calorimetry, non-linear regression; assay type: biochemical; settings: Tris-SO4 pH 8.5, 30°C
Bpro4516 = settings: Tris-SO4 pH 8.5, 30°C
Adeh3811 = assay: calorimetry, non-linear regression; assay type: biochemical, Anaeromyxobacter dehalogenans; settings: Tris-SO4 pH 8.5, 30°C

Chain of RPA1163 (Q6NAM1 whole entry): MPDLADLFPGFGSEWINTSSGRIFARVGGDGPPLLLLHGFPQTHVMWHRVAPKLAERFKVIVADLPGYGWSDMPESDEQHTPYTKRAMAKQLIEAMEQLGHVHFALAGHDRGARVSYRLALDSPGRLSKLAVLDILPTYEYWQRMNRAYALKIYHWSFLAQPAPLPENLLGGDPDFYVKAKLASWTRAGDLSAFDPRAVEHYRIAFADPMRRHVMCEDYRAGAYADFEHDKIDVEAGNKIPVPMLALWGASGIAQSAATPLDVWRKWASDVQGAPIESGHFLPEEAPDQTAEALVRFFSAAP
Chain of RHA1_ro00230 (Q0SK70 1-254): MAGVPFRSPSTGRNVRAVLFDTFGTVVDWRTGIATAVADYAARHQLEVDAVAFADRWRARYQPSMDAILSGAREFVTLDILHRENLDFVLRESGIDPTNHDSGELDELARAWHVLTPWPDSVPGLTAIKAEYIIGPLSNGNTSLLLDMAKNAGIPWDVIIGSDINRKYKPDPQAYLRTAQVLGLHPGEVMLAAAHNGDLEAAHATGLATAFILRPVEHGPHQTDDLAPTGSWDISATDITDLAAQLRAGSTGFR

SMILES | Substrates / Chloroacetate / KM (μM) (RPA1163) | Km (Bcen2424–2051) [µM] | Substrates / Chloroacetate / KM (μM) (RHA1_ro00230) | Substrates / Fluoroacetate / KM (μM) (Bpro4516) | Substrates / Fluoroacetate / KM (μM) (RPA1163) | Substrates / Fluoroacetate / KM (μM) (Adeh3811) | Substrates / Fluoroacetate / KM (μM) (RHA1_ro00230)
O=C(O)CCl [chloroacetate] | 1 400 ± 400 µM | 17 ± 2 | 19 000 ± 2000 µM | – | – | – | –
O=C(O)CF [fluoroacetate] | – | – | – | 19 000 ± 2000 µM | 3 300 ± 200 µM | 13 500 ± 300 µM | 20 000 ± 2000 µM
